# Patent US11952593B2, “Detection and treatment of daughter number variations in cancer cells” (PharmacoGenetics Limited, priority 2020, dated 2024)
# Columns and labels:
# [1] = test system: non-cancerous RPE1 retina epithelial cells; assay: Time-lapse microscopy count of multi-daughter divisions (DNV frequency), RPE1; assay type: cell-based; details: RPE1, 24 hours; wogonin 50 μM, 5-FU 20 μM
# Procedure: To investigate DNVs, the human HepG2 hepatocellular carcinoma, HeLa cervical adenocarcinoma, and A549 lung adenocarcinoma cell lines, as well as the non-cancerous RPE1 line of hTRET-immortalized retina epithelial cells, were obtained from the American Type Culture Collection (ATCC, Manassas, Va., USA) and cultivated in Dulbecco's Modified Eagle Medium (DMEM) supplemented with 10% fetal bovine serum (Gemini Bio-Products, Sacramento. Calif.) under a humidified atmosphere of 5% C02 at 37° C. After 24 hours, the old medium was replaced by acidic DMEM growth medium buffered by 15 mM 2-(N-morpholino)-ethanesulfonic acid.HCl (MES) at pH 6.4, neutral DMEM growth medium buffered by 15 mM 3-(N-morpholino)propanesulfonic acid.HCl (MOPS) at pH 7.4, alkaline growth medium buffered by 15 mM tris(hydroxymethyl)aminomethane.HCl (Tris) at pH 8.4, or neutral DMEM growth medium containing wogonin (50 μM) or 5-FU (20 μM). Using phase contrast microscopy, time-lapse photographs were recorded at different positions of the wells at 15-minute intervals for 24 hours using the Nikon ECLIPSE Ti Live Cell Imaging Observatory, enabling the count of P1 through P8 patterns at the end of Stage 2 of the DNV process (FIG. 1). All the images were photographed at 100× magnification. Altemately, using fluorescence microscopy, the cells were seeded into 12 well plates at 1×10^3 per well and stained with Hoechst 33342 ([…], Thermofisher) for 30 minutes in an incubator at 37° C. After 30 minutes, culture medium was replaced by various treatment media and placed under the Nikon ECLIPSE Ti Live Cell Imaging Observatory for 24 hours. For the HeLa, HepG2 and A549 cells, the various treatments were also extended to 5 days. Because the RPE1 cells yielded no DNVs after 24 hours of drug treatment, its treatment periods were not extended beyond 24 hours. All the cells were manually traced and quantified using the ImageJ software. DNV frequencies were estimated by dividing the total number of multi-daughter ([…]) divisions by the total number of cell divisions. Fluorescence staining and time-lapse microscopy were employed to differentiate between the bi-, tri-, tetra- and penta-daughter cell divisions, and to estimate the percentages of the P1 through P8 patterns in the final daughter cells generated by each of the DNV events. GraphPad Prism 5.0 software was employed for statistical analysis, and the results were presented as the mean. Significance was determined using the Student t-test (two-tailed, unpaired/unequal variances).
# HeLa cells = assay: Daughter-cell subgroups P1 through P8 in mitoses with DNV, HeLa; assay type: cell-based, human; details: 24 hours, wogonin 50 μM, 5-FU 20 μM
# Excerpt: (§1) “Daughter Number Variation” is a process that occurs during mitosis, where more than two daughter cells are produced per mitotic division. It is a two-stage process, wherein cell divisions of mono-nucleate, bi-nucleate, tri-nucleate and tetra-nucleate mother cells at Stage 1 produce subgroups of single mono-nucleate cells (herein referred to as P1), and subgroups containing one bi-nucleate cell and two mono-nucleate cells (herein referred to as P2). Stage 1 is followed by Stage 2, during which time some of the daughter cells from Stage 1 fuse to produce multi-nucleate cell subgroups, where the different subgroups differ with respect to the number of constituent cells and their nucleate status (herein referred to as P3 through P8). All the subgroups from a single DNV mitosis stay close to one another to form a distinct cluster when the cell culture is not overly dense with cells.
# (§2) P1 subgroup cells are daughter mono-nucleate cells resulting from mitoses with DNV that have not undergone any post-mitotic cell fusion. P2 subgroup daughter cells are clusters of one bi-nucleate cell and two mono-nucleate cells, which also have not undergone any post-mitotic cell fusion during DNV, whereas each of the multi-nucleated subgroups contains at least one cell that is generated from post-mitotic fusions between the Stage 1 cells. P3 through P8 are daughter cell subgroups, which result from cell fusions during DNV, and wherein each subgroup includes at least one multinucleate cell.
# (§3) By way of example and not of limitation, there is at least one multinucleate cell with two nuclei in P3 and P5, one multinucleate cell with three nuclei in P4 and P6, one multinucleate cell with four nuclei in P7, and one multinucleate cell with five nuclei in P8, sharing the same cytoplasm. More specifically, P3 cell subgroups are clusters of one multinucleate cell with two nuclei and one mononucleate cell, P4 cell subgroups are one multinucleate cell with three nuclei, P5 cell subgroups are clusters of either two multinucleate cells with two nuclei or one multinucleate cell with two nuclei and one binucleate cell, P6 cell subgroups are clusters of one multinucleate cell with three nuclei and one mononucleate cell, P7 cell subgroups are one multinucleate cell with four nuclei, and P8 cell subgroups are one multinucleate cell with five nuclei. P1 through P8 cell subgroups are depicted in detail in FIG. 2.
# (§4) The counts of P1 and P2 subgroups of cancer cells are then used to obtain their proportions based on the total number of cell subgroups P1 through P8 that resulted from mitotic DNVs during the predetermined period of time. The proportions are typically expressed as percentages. The proportion of P1 subgroup of cells is calculated as (number of P1 subgroups)+(total number of daughter cell subgroups)×100%, and the proportion of (P1 and P2) subgroup is calculated as (number of P1 subgroups+number of P2 subgroups)+(total number of daughter cell subgroups)×100%. This can also be expressed as (number of P1 subgroups)+(total number of P1 through P8 subgroups)×100%, or (number of P1 subgroups+number of P2 subgroups)+(total number of P1 through P8 subgroups)×100%, respectively.
# (§5) To investigate DNVs, the human HepG2 hepatocellular carcinoma, HeLa cervical adenocarcinoma, and A549 lung adenocarcinoma cell lines, as well as the non-cancerous RPE1 line of hTRET-immortalized retina epithelial cells, were obtained from the American Type Culture Collection (ATCC, Manassas, Va., USA) and cultivated in Dulbecco's Modified Eagle Medium (DMEM) supplemented with 10% fetal bovine serum (Gemini Bio-Products, Sacramento. Calif.) under a humidified atmosphere of 5% C02 at 37° C. […]
# HepG2 cells = assay: Daughter-cell subgroups P1 through P8 in mitoses with DNV, HepG2; assay type: cell-based, human; details: HepG2, 24 hours, wogonin 50 μM, 5-FU 20 μM
# Excerpt: as §1, §2, §3, §4, §5
smiles,measurement,setting,value
"COc1c(O)cc(O)c2c(=O)cc(-c3ccccc3)oc12 [Wogonin, wogonin]","Bi-daughter divisions, % of total divisions",[1],100%
same,"Bi-daughter divisions, number",[1],106
same,"Sum of Multi-daughter Divisions, number",[1],0
same,Total number of observed divisions,[1],106
same,"Tri-daughter divisions, number",[1],0
same,"Mitoses with DNV, number",HeLa cells,31
same,"P1 + P2 subgroups, % of all P1 through P8 subgroups",HeLa cells,(61.2) %
same,"P1 + P2 subgroups, number",HeLa cells,19
same,"P1 subgroups, % of all P1 through P8 subgroups",HeLa cells,(51.6) %
same,"P1 subgroups, number",HeLa cells,16
same,"P2 subgroups, % of all P1 through P8 subgroups",HeLa cells,(9.6) %
same,"P2 subgroups, number",HeLa cells,3
same,"P3 subgroups, % of all P1 through P8 subgroups",HeLa cells,(32.2) %
same,"P3 subgroups, number",HeLa cells,10
same,"P4 subgroups, % of all P1 through P8 subgroups",HeLa cells,(6.4) %
same,"P4 subgroups, number",HeLa cells,2
same,"P5 subgroups, number",HeLa cells,0
same,"P6 subgroups, number",HeLa cells,0
same,"P7 subgroups, number",HeLa cells,0
same,"P8 subgroups, number",HeLa cells,0
same,"P1 + P2 subgroups, % of all P1 through P8 subgroups",HeLa cells; listed as wogonin,61.2%
same,"P1 subgroups, % of all P1 through P8 subgroups",HeLa cells; listed as wogonin,51.6%
same,"Mitoses with DNV, number",HepG2 cells,63
same,"P1 + P2 subgroups, % of all P1 through P8 subgroups",HepG2 cells,(60.3) %
same,"P1 + P2 subgroups, number",HepG2 cells,38
same,"P1 subgroups, % of all P1 through P8 subgroups",HepG2 cells,(42.8) %
same,"P1 subgroups, number",HepG2 cells,27
same,"P2 subgroups, % of all P1 through P8 subgroups",HepG2 cells,(17.4) %
same,"P2 subgroups, number",HepG2 cells,11
same,"P3 subgroups, % of all P1 through P8 subgroups",HepG2 cells,(12.7) %
same,"P3 subgroups, number",HepG2 cells,8
same,"P4 subgroups, % of all P1 through P8 subgroups",HepG2 cells,(14.2) %
same,"P4 subgroups, number",HepG2 cells,9
same,"P5 subgroups, % of all P1 through P8 subgroups",HepG2 cells,(4.7) %
same,"P5 subgroups, number",HepG2 cells,3
same,"P6 subgroups, % of all P1 through P8 subgroups",HepG2 cells,(4.7) %
same,"P6 subgroups, number",HepG2 cells,3
same,"P7 subgroups, % of all P1 through P8 subgroups",HepG2 cells,(3.1) %
same,"P7 subgroups, number",HepG2 cells,2
same,"P8 subgroups, number",HepG2 cells,0
same,"P1 + P2 subgroups, % of all P1 through P8 subgroups",HepG2 cells; listed as wogonin,60.3%
same,"P1 subgroups, % of all P1 through P8 subgroups",HepG2 cells; listed as wogonin,42.8%
"O=c1[nH]cc(F)c(=O)[nH]1 [5-FU, 5-flurouracil]","Bi-daughter divisions, % of total divisions",[1],100%
same,"Bi-daughter divisions, number",[1],15
same,"Sum of Multi-daughter Divisions, number",[1],0
same,Total number of observed divisions,[1],15
same,"Tri-daughter divisions, number",[1],0
same,"Mitoses with DNV, number",HeLa cells,13
same,"P1 + P2 subgroups, number",HeLa cells,12
same,"P1 subgroups, number",HeLa cells,10
same,"P2 subgroups, % of all P1 through P8 subgroups",HeLa cells,(15.3) %
same,"P2 subgroups, number",HeLa cells,2
same,"P3 subgroups, % of all P1 through P8 subgroups",HeLa cells,(7.6) %
same,"P3 subgroups, number",HeLa cells,1
same,"P4 subgroups, number",HeLa cells,0
same,"P5 subgroups, number",HeLa cells,0
same,"P6 subgroups, number",HeLa cells,0
same,"P7 subgroups, number",HeLa cells,0
same,"P8 subgroups, number",HeLa cells,0
same,"Mitoses with DNV, number",HepG2 cells,17
same,"P1 + P2 subgroups, number",HepG2 cells,6
same,"P1 subgroups, number",HepG2 cells,3
same,"P2 subgroups, % of all P1 through P8 subgroups",HepG2 cells,(17.6) %
same,"P2 subgroups, number",HepG2 cells,3
same,"P3 subgroups, % of all P1 through P8 subgroups",HepG2 cells,(35.2) %
same,"P3 subgroups, number",HepG2 cells,6
same,"P4 subgroups, number",HepG2 cells,0
same,"P5 subgroups, % of all P1 through P8 subgroups",HepG2 cells,(11.7) %
same,"P5 subgroups, number",HepG2 cells,2
same,"P6 subgroups, % of all P1 through P8 subgroups",HepG2 cells,(17.6) %
same,"P6 subgroups, number",HepG2 cells,3
same,"P7 subgroups, number",HepG2 cells,0
same,"P8 subgroups, number",HepG2 cells,0
